Experimental data: a compilation of properties of binary mixtures (doi:10.1021/je400097b)

Assay: xn = mol fraction of the nth substance listed
Conditions: 101 kPa

O + CC[NH+](C)CC.O=S(=O)([O-])C(F)(F)F
Conditions | viscosity [mPa·s]
293.15 K, x1 = 1 | 1.2

CC[NH+](C)CC.O=S(=O)([O-])C(F)(F)F + O
viscosity [mPa·s]
Conditions | x2 = 0.037 | x2 = 0.434 | x2 = 0.586 | x2 = 0.759 | x2 = 0.844 | x2 = 0.925 | x2 = 0.972
293.15 K | 53.3 | 22.3 | 14.5 | – | 4.99 | 2.86 | 1.69
313.15 K | – | 12.1 | 7.98 | 4.38 | 2.89 | 1.75 | 1.2
333.15 K | 14.6 | – | 4.97 | – | – | 1.28 | 1.01
353.15 K | 9.18 | – | 3.38 | – | 1.45 | 1.08 | 0.91
